Source: patent publication US10358434B2, “2-(3-pyridinyl)-1H-benzimidazole derivative compound and medicament containing same” (NIHON MEDI-PHYSICS CO., LTD., priority 2014, dated 2019)

Legend:
[1] = tested on: human adrenal gland section expressing aldosterone-producing adenoma; assay: In vitro autoradiography using human adrenal adenoma; type: binding; conditions: section of FIG. 17(b)
From the text: From adrenal gland excised from a human patient for treatment of primary aldosteronism, a portion containing aldosterone-producing adenoma was removed and was then frozen. The frozen adrenal gland was embedded in an embedding agent for production of a frozen tissue section (Tissue-Tek O.C.T. Compound, Sakura Finetek Japan). Using a freezing microtome (CM3050S, Leica Microsystems), a 7-μm thin slice section, which is schematically shown in FIGS. 17(a) and 17(b), was produced, and was preserved at −20° C. before use. In FIGS. 17, 71a and 71b indicate aldosterone-producing adenomas, 72a and 72b indicate normal adrenal cortexes, and 73a and 73b indicate normal adrenal medullas. A 5-33 kBq/mL solution was prepared by adding a suitable amount of each of Compounds [^18F] 100, [^18F] 200, [^123I] 400, [^18F] 500, and [^123I] 601 to [^123I] 610, which were obtained by the methods described in Examples 2, 4, 7, 9, 11, 13, 15, 17, 19, 21, 23, 25, 27, and 29, or [^123I] IMTO to a phosphate-buffered physiological saline containing 1 w/v % bovine serum albumin (not containing fatty acid). The radioactivity concentration was measured using an autowell gamma system (ARC-7001, manufactured by Hitachi Aloka Medical, Ltd.). The section was immersed in the obtained sample solution for 10 minutes. For Compounds [^18F] 100, [^18F] 200, [^123I] 400, [^18F] 500, [^123I] 601 and [^123I] 602, the section shown in FIG. 17(a) was used, and for Compounds […] [^123I] IMTO, both sections shown in FIGS. 17(a) and (b) were used. Each sample solution was washed off, and the section was then exposed to an imaging plate (BAS-SR2040, manufactured by FUJIFILM Holdings Corporation) (IP) for 16-20 hours, and thereafter, an autoradiogram was obtained using a fluoro-image analyzer (FLA-7000, manufactured by FUJIFILM Holdings Corporation).
In order to quantitatively compare differences between images caused by ^123I and ^18F nuclides, a correction was made by calculating accumulation of radioactivity within the range of a region of interest (ROI) by means of integral calculation based on half-life, added radioactivity and IP contact time.
610. FIG. 18(b), FIG. 19(b), FIG. 20(b), FIG. 21(b), FIG. 22(a), FIG. 23(a), FIG. 24(a), FIG. 25(a), FIG. 26(a), FIG. 27(a), FIG. 28(a), FIG. 29(a), FIG. 30(a), and FIG. 31(a) each show an autoradiogram of [^123I] IMTO. […] 100, [^18F] 200, [^123I] 400, [^18F] 500, and [^123I] 601 to [^123I] […] The ROI having the same area as each other was established in a normal site and in a site in which aldosterone-producing adenoma had developed. Then, the PSL value (B1) indicating accumulation of radioactivity in the sites of normal adrenal cortexes 72a and 72b was compared with the PSL value (B2) indicating accumulation of radioactivity in the sites of aldosterone-producing adenomas 71a and 71b. In Table 7, the B1, B2 and B2/B1 values of [^18F] 100 indicate the mean values for the number of tests (n), respectively.

[2] = Plasma stability evaluation (TLC analysis); type: in vitro ADME; conditions: 37° C., 60 minutes, TLC analysis
Description: Evaluation was made using a heparin-treated normal human plasma pool (Kohjin Bio Co., Ltd.). Compounds [^18F] 100, [^18F] 200, [^123I] 400, [^18F] 500, and [^123I] 601 to 610 obtained by the methods shown in Examples 2, 4, 7, 9, 11, 13, 15, 17, 19, 21, 23, 25, 27, and 29 were each added to the aforementioned human plasma (5 mL), and the obtained mixture was then incubated at 37° C. for 60 minutes. Thereafter, the mixture was centrifuged with addition of methanol, so that a deproteinization treatment was carried out. Thereafter, stability was evaluated by TLC analysis. As TLC analysis conditions, the TLC analysis conditions applied upon the above described synthesis of each compound were applied.

[3] = In vivo kinetics experiment (radioactivity distribution); set-up: species or system Wistar male rat; conditions: rat i.v., mean ± SD
Description: Each of Compounds [^18F] 100, [^18F] 200, [^123I] 400, [^18F] 500, and [^123I] 601 to 610 obtained by the methods described in Examples 2, 4, 7, 9, 11, 13, 15, 17, 19, 21, 23, 25, 27, and 29, or [^123I] IMTO, was diluted with a physiological saline containing 1 w/v % ascorbic acid to prepare a solution to be administered. The above described compound (approximately 1 to 3.7 MBq) was injected into the caudal vein of a Wistar male rat (9 weeks old) under anesthesia with a mixed gas of isoflurane/air, and ten minutes after the injection, the rat was sacrificed by exsanguination. From the thus sacrificed rat, blood and organs (heart, lung, stomach, liver, spleen, small intestine, large intestine, kidney, bladder (including urine), muscle (lower limbs), brain, adrenal gland, testis, fat, femur, or thyroid gland) were excised, and the weights thereof were then measured. Thereafter, radioactivity was measured in the blood, the individual excised organs, and the remaining whole body. Further, 30 and 60 minutes after the administration, the same operations as those described above were carried out. […] The symbol “n” in Tables 9 to 23 indicates the number of rats used. In addition, Tables 9 to 23 also show the ratio of radioactivity accumulation in adrenal grand (% ID/g) to radioactivity accumulation in each of blood, liver, kidney, small intestine, muscle and fat (% ID/g).

## Fc1cc2nc(-c3cncc(Cn4ccnc4)c3)n(Cc3ccc([123I])cc3)c2cc1Cl [[^123I] 605, 6-Chloro-5-fluoro-1-(4-[^123I]iodobenzyl)-2-[5-(1H-imidazol-1-ylmethyl)-3-pyridinyl]-1H-benzimidazole]
[1]
  B2/B1 accumulation ratio: 0.94
[1]; site 71b
  B2 (PSL value, aldosterone-producing adenoma): 4065
[1]; site 72b
  B1 (PSL value, normal adrenal cortex): 4318
[2]
  Radiochemical purity after incubation in human plasma: 90%
[3]; 10 min after administration
  Adrenal gland/blood ratio of radioactivity accumulation: 39.83 ± 1.25
  Adrenal gland/fat ratio of radioactivity accumulation: 41.90 ± 6.19
  Adrenal gland/kidney ratio of radioactivity accumulation: 2.61 ± 0.04
  Adrenal gland/liver ratio of radioactivity accumulation: 1.38 ± 0.01
  Adrenal gland/muscle ratio of radioactivity accumulation: 36.77 ± 3.87
  Adrenal gland/small intestine ratio of radioactivity accumulation: 2.44 ± 0.80
  Radioactivity distribution Adrenal gland: 5.67 ± 0.25 % ID/g
  Radioactivity distribution Bladder (including urine): 0.09 ± 0.06 % ID/g
  Radioactivity distribution Blood: 0.14 ± 0.00 % ID/g
  Radioactivity distribution Fat: 0.14 ± 0.02 % ID/g
  Radioactivity distribution Femur: 0.51 ± 0.02 % ID/g
  Radioactivity distribution Heart: 0.73 ± 0.06 % ID/g
  Radioactivity distribution Kidney: 2.17 ± 0.09 % ID/g
  Radioactivity distribution Large intestine: 0.13 ± 0.01 % ID/g
  Radioactivity distribution Liver: 4.12 ± 0.23 % ID/g
  Radioactivity distribution Lung: 1.94 ± 0.16 % ID/g
  Radioactivity distribution Muscle (lower limbs): 0.16 ± 0.01 % ID/g
  Radioactivity distribution Remaining whole body: 0.20 ± 0.01 % ID/g
  Radioactivity distribution Small intestine: 2.46 ± 0.61 % ID/g
  Radioactivity distribution Spleen: 1.08 ± 0.10 % ID/g
  Radioactivity distribution Stomach: 0.80 ± 0.23 % ID/g
  Radioactivity distribution Testis: 0.03 ± 0.00 % ID/g
  Radioactivity distribution Whole brain: 0.03 ± 0.00 % ID/g
[3]; 30 min after administration
  Adrenal gland/blood ratio of radioactivity accumulation: 26.42 ± 7.24
  Adrenal gland/fat ratio of radioactivity accumulation: 22.69 ± 9.87
  Adrenal gland/kidney ratio of radioactivity accumulation: 2.58 ± 0.55
  Adrenal gland/liver ratio of radioactivity accumulation: 1.14 ± 0.36
  Adrenal gland/muscle ratio of radioactivity accumulation: 14.44 ± 5.54
  Adrenal gland/small intestine ratio of radioactivity accumulation: 0.79 ± 0.34
  Radioactivity distribution Adrenal gland: 3.10 ± 1.06 % ID/g
  Radioactivity distribution Bladder (including urine): 0.15 ± 0.01 % ID/g
  Radioactivity distribution Blood: 0.12 ± 0.01 % ID/g
  Radioactivity distribution Fat: 0.14 ± 0.03 % ID/g
  Radioactivity distribution Femur: 0.44 ± 0.04 % ID/g
  Radioactivity distribution Heart: 0.52 ± 0.04 % ID/g
  Radioactivity distribution Kidney: 1.18 ± 0.14 % ID/g
  Radioactivity distribution Large intestine: 0.16 ± 0.01 % ID/g
  Radioactivity distribution Liver: 2.72 ± 0.12 % ID/g
  Radioactivity distribution Lung: 0.99 ± 0.10 % ID/g
  Radioactivity distribution Muscle (lower limbs): 0.22 ± 0.02 % ID/g
  Radioactivity distribution Remaining whole body: 0.21 ± 0.02 % ID/g
  Radioactivity distribution Small intestine: 3.99 ± 0.33 % ID/g
  Radioactivity distribution Spleen: 0.58 ± 0.09 % ID/g
  Radioactivity distribution Stomach: 1.38 ± 0.42 % ID/g
  Radioactivity distribution Testis: 0.03 ± 0.00 % ID/g
  Radioactivity distribution Whole brain: 0.03 ± 0.00 % ID/g
[3]; 60 min after administration
  Adrenal gland/blood ratio of radioactivity accumulation: 20.07 ± 1.94
  Adrenal gland/fat ratio of radioactivity accumulation: 10.82 ± 1.23
  Adrenal gland/kidney ratio of radioactivity accumulation: 2.05 ± 0.09
  Adrenal gland/liver ratio of radioactivity accumulation: 0.88 ± 0.05
  Adrenal gland/muscle ratio of radioactivity accumulation: 10.90 ± 0.67
  Adrenal gland/small intestine ratio of radioactivity accumulation: 0.26 ± 0.08
  Radioactivity distribution Adrenal gland: 1.70 ± 0.21 % ID/g
  Radioactivity distribution Bladder (including urine): 0.13 ± 0.05 % ID/g
  Radioactivity distribution Blood: 0.09 ± 0.02 % ID/g
  Radioactivity distribution Fat: 0.16 ± 0.02 % ID/g
  Radioactivity distribution Femur: 0.36 ± 0.03 % ID/g
  Radioactivity distribution Heart: 0.35 ± 0.09 % ID/g
  Radioactivity distribution Kidney: 0.83 ± 0.10 % ID/g
  Radioactivity distribution Large intestine: 0.19 ± 0.03 % ID/g
  Radioactivity distribution Liver: 1.93 ± 0.37 % ID/g
  Radioactivity distribution Lung: 0.56 ± 0.15 % ID/g
  Radioactivity distribution Muscle (lower limbs): 0.16 ± 0.01 % ID/g
  Radioactivity distribution Remaining whole body: 0.13 ± 0.02 % ID/g
  Radioactivity distribution Small intestine: 6.65 ± 0.98 % ID/g
  Radioactivity distribution Spleen: 0.34 ± 0.07 % ID/g
  Radioactivity distribution Stomach: 2.22 ± 0.73 % ID/g
  Radioactivity distribution Testis: 0.03 ± 0.01 % ID/g
  Radioactivity distribution Whole brain: 0.02 ± 0.01 % ID/g
